According to patent publication US20260000658A1, “METHODS FOR THE TREATMENT OF PROLIFERATIVE GLOMERULONEPHRITIS” (INSTITUT NATIONAL DE LA SANTÉ ET DE LA RECHERCHE MÉDICALE, priority 2022, published 2026):

Tests used:
NZBWF1/J mice = experiment: Uninephrectomized NZBWF1/J mice (lupus nephritis model), vehicle or alpelisib for 4 weeks; format: in vivo, mouse
Excerpt: A. Urinary albumin to creatinine ratio B. Blood urea nitrogen level, C. kidney to body weight ratio of NZBWF1/J mice at the time of sacrifice (4 weeks following either sham operation or uninephrectomy followed by the treatment either with vehicle or alpelisib) (n=5-15 mice per group). D. Representative P-S6RP/Nephrin coimmunofluorescence staining of kidneys from 4 weeks following either sham operation or uninephrectomy followed by the treatment either with vehicle or alpelisib) (n=4-6 mice per group). Scale bar […]. E. P-S6RP mean intensity quantification (n=4-6 mice per group). F. Col3a, G. Col1a, and H. Tnfα quantification of qRT-PCR analysis in the kidney cortex of kidneys at the time of sacrifice (4 weeks following either sham operation or uninephrectomy followed by the treatment either with vehicle or alpelisib) (n=5-15 mice per group). I. Kaplan-Meier survival curves of MRL-lpr mice treated either with vehicle or alpelisib (n=13-14 mice per group). J. Urinary albumin to creatinine ratio of MRL-lpr mice treated either with vehicle or alpelisib from 8 weeks old till death (n=13-14 mice per group). K. Vehicle treated mice, and L. alpelisib treated mice of the trajectory of urinary albumin to creatinine ratio of MRL-lpr mice (n=13-14 mice per group).
For the uninephrectomy experiments, the right kidneys were removed under anesthesia. For the medical treatment of mice, 50 mg kg −1 alpelisib (MedChem Tronica) in 1% carboxymethylcellulose (Sigma Aldrich)+0.5% Tween (Sigma Aldrich) or vehicle (1% carboxymethylcellulose+0.5% Tween) was administered by oral gavage daily for the indicated periods of time. Blood and urines were obtained at the indicated times. At euthanasia, blood, urines, kidneys were harvested. In some experiments, spleens, hearts, and bone marrow (BM) in femurs and tibias were harvested as well. Tissues were fixed in 4% paraformaldehyde and paraffin embedded for immunohistochemical analysis, snap-frozen in Optimal Cutting Temperature (OCT), or stored at −80° C. for mRNA or protein analysis.
Mouse blood counts were analyzed using a hematology analyzer (ProCyte Dx; IDEXX Laboratories). Mouse serum creatinine, blood urea nitrogen, urinary albumin, and urinary creatinine were evaluated using an AU5800 (Beckman Coulter) autoanalyzer. Serum anti-dsDNA measurement was performed according to the manufacturer's instruction using mouse anti-dsDNA ELISA kit (LBIS). The absorbance was measured using Ininite M Nano (TECAN).
4-μm kidney sections were stained with periodic acid-Schiff (PAS), Masson's Trichrome (MT), Periodic acid metenamine silver (PAM) or Hematoxylin and Eosin (HE) staining for histological analysis. The degree of glomerular lesions was evaluated using the following scoring system: 0=no lesion, 1=affecting up to 25% of the glomerulus, 2=affecting 25-50% of the glomerulus, 3=affecting 50-75% of the glomerulus, and 4=affecting 75-100%. At least 50 glomeruli per sample were measured for each analysis. An indirect immunoperoxidase method was used for immunohistochemistry. Briefly, after deparaffinization, antigen retrieval was performed with citrate buffer (pH6) or Tris-EDTA buffer (pH9 or pH6) using microwave or high temperature (95° C.). Endogenous peroxidase activity was quenched using 3% hydrogen peroxide; nonspecific protein binding was blocked using 2.5% normal horse serum (Vector Laboratories), and endogenous biotin activity was quenched using the Avidin/Biotin Blocking Kit (Vector Laboratories). When using mouse primary antibodies on mouse tissue, Klear mouse blocking reagent (Diagomics) was used to block endogenous mouse immunoglobulins. After blocking, the tissue sections were incubated with the primary antibodies overnight at 4° C. […]

[1] = LC-MS analysis of alpelisib in kidneys after oral gavage; format: in vivo, mouse; conditions: 2 hours after oral gavage
Method: Each tissue type was homogenized in 100% cold methanol with tissue-to-solvent ratio of 1-mg tissue to 5-μl methanol. After sonication of 20 s, the tissue extract was centrifuged at 13,000 g for 30 min and then injected onto a Phenomenex Kinetex XB-C18 HPLC column (100 mm by 2.1 mm) at 45° C. Alpelisib was analyzed by reverse-phase HPLC (Shimadzu LCMS system 8040 interfaced with the LabSolutions software). Twenty […] of tissue extracts were injected onto a column, and the mobile phase used for the separation consisted of two eluants: Solvent A was 0.1% formic acid in ddH20, and solvent B was acetonitrile with 0.1% of formic acid. Compounds were separated by the following discontinuous gradient at a flow rate of 0.6 ml/min: The initial concentration of 20% in solvent B increase to 70% over 6 min, and this was followed by a decrease to 20% over the next minute, and the initial conditions were then maintained for 14 min. The alpelisib was monitored spectrophotometrically by absorbance (photodiode detector) from 205 to 600 nm and by tandem mass detection. The mass measurement was implemented in positive ion mode using multiple reaction monitoring (MRM) with an electrospray ionization source. […] The quantification was done by integration of the peak absorbance area using a calibration curve established with various known concentrations of alpelisib. […]

[2] = 4 weeks treatment, at sacrifice

SMILES: Cc1nc(NC(=O)N2CCC[C@H]2C(N)=O)sc1-c1ccnc(C(C)(C)C(F)(F)F)c1 [alpelisib, Alpelisib]
- anemia (NZBWF1/J mice; 4 weeks treatment): partial correction of anemia
- glomerular AKT/mTOR pathway activation (P-S6RP) (NZBWF1/J mice; 4 weeks treatment): blunted
- glomerular IgG, IgM and C3 deposits (NZBWF1/J mice; 4 weeks treatment): significantly reduced
- level of dsDNA (NZBWF1/J mice; 4 weeks treatment): tendency to decrease
- platelet count (NZBWF1/J mice; 4 weeks treatment): significant increase in platelet count
- podocyte differentiation markers (NZBWF1/J mice; 4 weeks treatment): significantly improved
- blood urea nitrogen levels (NZBWF1/J mice; [2]): lower blood urea nitrogen levels
- kidney to body weight ratio (NZBWF1/J mice; [2]): significantly reduced
- glomeruli, histological level (NZBWF1/J mice; 4 weeks treatment, vs vehicle): preserved glomeruli
- kidney lesions (title of FIG. 4) (NZBWF1/J mice; Lupus Nephritis models (NZBWF1/J and MRL-lpr)): improves kidney lesions
- spleen size (NZBWF1/J mice; both sham and uninephrectomized mice): significantly reduced
- albuminuria (urinary albumin to creatinine ratio) (NZBWF1/J mice; females, uninephrectomy at 24 weeks, 4 weeks treatment, at sacrifice): significantly less albuminuria
- Col1a and Col3a mRNA expression (NZBWF1/J mice; kidney cortex, qRT-PCR): reduced
- TNFa mRNA expression (NZBWF1/J mice; kidney cortex, qRT-PCR): reduced
- progression of glomerular lesions (NZBWF1/J mice; sacrifice vs kidney removed at uninephrectomy): remained stable
- alpelisib in kidneys (LC-MS) [1]: detectable
